Patent US12697322B2, “Methods of treating cancer using androgen receptor antagonists” (Garvan Institute of Medical Research, priority 2019, dated 2026)

Key:
[1] = tested on: ELX12-58 PDX model; test: ELX12-58 PDX model with PEG-Doxorubicin or Cisplatin and Seviteronel (FIG. 15); type: in vivo, NSG female mice; conditions: ELX-12-58 PDX
Description: Freshly cut tumour chunks derived from a previously expanded tumour (ELX12-58 PDX model) were transferred into the mammary fat pad of NSG female mice. 15 animals were enrolled per treatment arm. Tumour size was monitored by caliper measurement as previously described. At the time tumour size reached 50-150 mm^3 animals were randomized into treatment arms: Vehicle (Veh), PEG-Doxorubicin (PEG-Dox) and PEG-Dox+Sev. Drug preparation and treatment administration was followed as previously described for the first round of treatment. PEG-Dox (Liposomal Doxorubicin Sun. R:202827) was administrated by weekly injections to a final concentration of 4 mg/kg. At treatment end-point animals were harvested and primary tumour, lymph node metastasis (if present), lung and liver were collected to generate FFPEs for histopathology analysis. […] Treatment was extended for 2 additional weeks, following the 3rd dose of chemotherapy, administrating a total of 5 EPG-Dox injections for these animals. Animals were followed up for 2.5 months, culling mice before if reached ethical end-point. Primary tumour and organs to determine metastatic burden were collected.

[2] = tested on: HMLER and HCC38 CD44^Lo cells; test: Flow cytometry of chemotherapy-induced CD44^Lo to CD44^Hi plasticity; type: cell-based, human; conditions: one dose of chemotherapy for 72 hours
Description: Cells were stained and fixed as with DHT treatment.
Using purified populations of CD44^Lo cells (with no CD44^Hi fraction) the effects of chemotherapy on cellular plasticity was investigated using flow cytometry.

For `N.N.[Cl][Pt][Cl]` [Cisplatin], the tumour burden [1] was “did not reduce ELX-12-58 tumour burden” and the “induction of CD44^Lo-to-CD44^Hi transition by chemotherapy” value [2] was “induce CD44^Lo cells to transition to the CD44^Hi state”.
